Measurements taken from the supplement of paper PMC10307832.

Tests used:
Experiment in all cases: relative viability (nuclei count vs DMSO), 5 days (fraction); higher = more cells survive
PAC-1 + Bortezomib = compound: C=CCc1cccc(/C=N/NC(=O)CN2CCN(Cc3ccccc3)CC2)c1O [PAC-1] + CC(C)C[C@H](NC(=O)[C@H](Cc1ccccc1)NC(=O)c1cnccn1)B(O)O [Bortezomib] (partner 0.002 µM)
Method in brief: (§1)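 The day after seeding in 1536-well plates, lung cancer cell lines were treated by pin tool with a single drug, or with a fixed anchor-drug dose together with five library-drug doses (not always all listed) in √10 steps. After 5 days, a combined fix-and-stain solution (final 0.05% Triton X-100, 1% formaldehyde, 1 ug/ml Hoechst) was added. Nuclei counted on 4× images gave relative viability as treated counts over vehicle counts, reported as the median of duplicate plates.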

Ibrutinib + Luminespib = compound: C=CC(=O)N1CCC[C@@H](n2nc(-c3ccc(Oc4ccccc4)cc3)c3c(N)ncnc32)C1 [Ibrutinib] + CCNC(=O)c1noc(-c2cc(C(C)C)c(O)cc2O)c1-c1ccc(CN2CCOCC2)cc1 [Luminespib] (partner 0.01 µM)
Method in brief: as §1

Ibrutinib + Crizotinib = compound: C=CC(=O)N1CCC[C@@H](n2nc(-c3ccc(Oc4ccccc4)cc3)c3c(N)ncnc32)C1 [Ibrutinib] + C[C@@H](Oc1cc(-c2cnn(C3CCNCC3)c2)cnc1N)c1c(Cl)ccc(F)c1Cl [Crizotinib] (partner 1 µM)
Method in brief: as §1

PAC-1 + Vorinostat = compound: C=CCc1cccc(/C=N/NC(=O)CN2CCN(Cc3ccccc3)CC2)c1O [PAC-1] + O=C(CCCCCCC(=O)Nc1ccccc1)NO [Vorinostat] (partner 1 µM)
Method in brief: as §1

Cell Line | relative viability (PAC-1 + Bortezomib; first compound 0.02 µM) | relative viability (PAC-1 + Bortezomib; first compound 0.06325 µM) | relative viability (PAC-1 + Bortezomib; first compound 0.2 µM) | relative viability (PAC-1 + Bortezomib; first compound 2 µM) | relative viability (Ibrutinib + Luminespib; first compound 0.005 µM) | relative viability (Ibrutinib + Luminespib; first compound 0.01581 µM) | relative viability (Ibrutinib + Luminespib; first compound 0.05 µM) | relative viability (Ibrutinib + Luminespib; first compound 0.1581 µM) | relative viability (Ibrutinib + Luminespib; first compound 0.5 µM) | relative viability (Ibrutinib + Crizotinib; first compound 0.01581 µM) | relative viability (Ibrutinib + Crizotinib; first compound 0.05 µM) | relative viability (Ibrutinib + Crizotinib; first compound 0.1581 µM) | relative viability (Ibrutinib + Crizotinib; first compound 0.5 µM) | relative viability (PAC-1 + Vorinostat; first compound 0.02 µM) | relative viability (PAC-1 + Vorinostat; first compound 0.06325 µM) | relative viability (PAC-1 + Vorinostat; first compound 0.2 µM) | relative viability (PAC-1 + Vorinostat; first compound 2 µM) | relative viability (Ibrutinib + Crizotinib; first compound 0.005 µM)
NCI-H2405 | 0.981 | 1.02 | 0.959 | 0.977 | 0.846 | 0.669 | 0.66 | 0.713 | 0.69 | 0.886 | 0.779 | 0.824 | 0.8 | 1.05 | 1.12 | 1.14 | 1.15 | 
EBC-1 | 0.513 | 0.544 | 0.633 | 0.53 |  |  |  |  |  | 0.21 | 0.205 | 0.188 | 0.162 |  |  |  |  | 0.199
NCI-H1734 | 0.904 | 0.995 | 0.877 | 0.955 | 0.208 | 0.189 | 0.235 | 0.188 | 0.175 | 0.689 | 0.675 | 0.761 | 0.67 | 0.825 | 0.792 | 0.767 | 0.895 | 0.587
NCI-H2087 | 0.739 | 0.838 | 0.702 | 0.95 | 0.161 | 0.136 | 0.153 |  | 0.165 | 0.949 | 1.04 | 0.872 | 0.862 | 0.678 | 0.665 | 0.722 | 0.858 | 0.849
NCI-H1563 | 0.854 | 0.833 | 0.844 | 0.916 | 0.538 | 0.524 | 0.519 | 0.519 | 0.53 | 0.874 | 0.803 | 0.875 | 0.8 |  |  |  |  | 0.815
SW 900 |  |  |  |  |  |  | 0.159 | 0.175 | 0.19 |  |  |  |  |  | 0.41 | 0.494 | 0.553 | 
A549 |  |  |  |  |  |  |  |  |  | 0.649 | 0.639 | 0.708 | 0.661 |  |  |  |  | 0.814
NCI-H1793 |  |  |  |  |  | 0.155 | 0.196 | 0.177 | 0.151 |  |  |  |  | 0.653 | 0.814 | 0.741 | 0.894 | 
EKVX | 1.02 | 1.04 | 1.03 | 0.991 | 0.66 | 0.784 | 0.856 | 0.81 | 0.547 | 0.743 | 1.05 | 0.964 | 0.562 | 0.768 | 0.776 | 0.793 | 0.69 | 0.995
NCI-H2126 | 1.08 | 1.08 | 1.21 | 1.18 | 0.651 | 0.756 | 0.855 | 0.962 | 0.75 | 1 | 0.994 | 1.06 | 0.936 | 0.733 | 0.785 | 0.803 | 0.763 | 
NCI-H1993 | 0.975 | 1.08 | 1.15 | 1.09 | 0.607 | 0.78 | 0.824 | 0.689 | 0.605 | 0.744 | 0.704 |  | 0.713 | 0.821 | 0.895 | 0.658 | 0.652 | 0.843
EPLC-272H |  | 0.895 | 1.02 | 1 | 0.485 | 0.433 | 0.211 | 0.313 | 0.211 | 0.806 | 0.809 | 1.06 | 0.522 | 0.457 | 0.3 | 0.309 | 0.225 | 
LU99A | 1.1 | 1.11 | 1.07 | 1.05 | 0.191 | 0.24 | 0.285 | 0.249 | 0.248 | 0.605 | 0.619 | 0.644 | 0.644 | 0.502 | 0.448 | 0.429 | 0.502 | 0.522
NCI-H1299 | 1.02 | 0.99 | 0.975 | 0.993 |  |  |  |  |  | 0.897 | 0.957 | 0.977 | 0.965 |  |  |  |  | 1
HCC-78 | 0.387 | 0.496 | 0.434 | 0.483 |  |  |  |  |  | 0.328 | 0.289 | 0.335 | 0.247 | 0.379 | 0.416 | 0.435 | 0.431 | 0.347
HCC-15 | 1.03 | 1.11 | 1.01 | 1.04 | 0.362 | 0.278 | 0.488 | 0.308 | 0.243 | 0.785 | 0.873 | 0.828 | 0.837 | 0.782 | 0.861 | 0.769 | 0.825 | 0.889
201T | 1.08 | 1.15 | 1.13 | 1.05 | 1.03 | 1.02 | 1.07 | 1.05 | 0.953 | 1.02 | 1.03 | 1.04 | 1.04 | 0.957 | 0.949 | 1.09 | 1.05 | 1.03
LCLC-103H | 1.17 | 1.1 | 1.1 | 1.18 | 1 | 0.905 | 0.896 | 1.09 | 0.897 | 1.03 | 1.02 | 1.06 | 1.04 | 0.854 | 0.864 | 0.759 | 0.826 | 1.06
RERF-LC-KJ | 1.15 | 1.16 | 1.08 | 1.17 | 1.24 | 1.12 | 1.26 | 1.14 | 1.16 | 0.742 | 0.825 | 0.889 | 0.815 | 0.715 | 0.67 | 0.475 | 0.711 | 0.865
NCI-H1650 | 0.198 | 0.18 | 0.183 | 0.229 | 0.211 | 0.196 | 0.192 | 0.194 | 0.209 | 0.919 | 0.934 | 1.09 | 0.744 | 0.507 | 0.672 | 0.52 | 0.418 | 0.845
NCI-H1355 | 1.15 | 1.28 | 1.14 | 1.2 | 0.55 | 0.648 | 0.715 | 0.858 | 0.517 | 0.957 | 0.971 | 1.15 | 0.827 | 0.61 | 0.625 | 0.572 | 0.665 | 
